According to US11299538B2, “Anti-IGF antibodies” (Boehringer Ingelheim International GmbH, priority 2008, dated 2022):

Tested on: SK-ES-1 cells
Assay: Ewing's sarcoma-derived cell line growth assay, combination with rapamycin
Assay type: cell-based
Conditions: Homo sapiens, SK-ES1, 100 nM (each agent), FIG. 8, read-out: proliferation inhibition
Protocol: The typical concentrations used are 30, 10, 3.3, 1.1, 0.37, and 0.12 μg/ml (or 100, 10, 1, 0.1, 0.01, 0.001 nM rapamycin and test antibody for combination studies) and each dilution is performed in triplicate wells. The cells plus antibody are then incubated for 120 hours after which time the relative cell number in each well is determined using the CellTiter-Glo luminescent cell viability assay (Promega). Luminescence (LU=Luminescence Units) is recorded using a XFluor GENios Pro 4 and for data analysis the mean value from triplicate wells is taken and fitted by iterative calculations using a sigmoidal curve analysis program (Graph Pad Prism) with variable Hill slope.

Compound `CO[C@H]1C[C@@H]2CC[C@@H](C)[C@@](O)(O2)C(=O)C(=O)N2CCCC[C@H]2C(=O)O[C@H]([C@H](C)C[C@@H]2CC[C@@H](O)[C@H](OC)C2)CC(=O)[C@H](C)/C=C(\C)[C@@H](O)[C@@H](OC)C(=O)[C@H](C)C[C@H](C)/C=C/C=C/C=C/1C` [rapamycin, reference compound] has an inhibition at 0.1 µM of ~60%.
